Results published in PMC13076199, “Convergent evolution of hexenal isomerases in Lepidoptera and plants” (Nature Ecology & Evolution, 2026).

Molecular target: T1, MsHi-1 (Manduca sexta, UniProt Z9A1Z6DDJ7)
T1 construct: coding region in pGEX-4T-1, N-terminal GST fusion, E. coli BL21 (DE3), GST Sepharose
Assay: Hi activity with and without added FAD, SPME-GC-qToF-MS
Assay type: biochemical
Conditions: 1 mM FAD, 0.2 mM Z3AL, 20 mM Tris-HCl pH 7.0, 20 µg BSA

Cc1cc2nc3c(=O)[nH]c(=O)nc-3n(C[C@H](O)[C@H](O)[C@H](O)COP(=O)(O)OP(=O)(O)OC[C@H]3O[C@@H](n4cnc5c(N)ncnc54)[C@H](O)[C@@H]3O)c2cc1C [flavin adenine dinucleotide]
Hi activity with and without added FAD, SPME-GC-qToF-MS: addition of FAD to enzymatic reactions moderately increased Hi activity across all tested homologues
